Here are results for five compounds from patent publication US20030013684A1, “Agricultural composition” (priority 2001, published 2003).

Data set [1] can be described thus: Coprecipitation of a chemical substance with a tannin or chelating agent and a metal salt in water. In kind it is physicochemical. The following applies: (+)-catechin 60 mg and lead acetate 60 mg.
Method: After stirring for a while, a coprecipitate was formed.
In a similar manner, for the following combinations of a chemical substance and a metal salt, a proportion of the chemical substance taken into a coprecipitate was determined.
Chemical substance: (B) acephate, (C) acetamiprid, (D) urea;
Chelating agent: (Q) sodium ethylenediamine tetraacetate, (R) aminotrimethylenephosphonic acid;
Metal salt: (b) potassium acetate, (c) manganese acetate, (d) aluminum acetate, (e) nickel acetate, (f) cobalt acetate, (g) calcium acetate, (h) magnesium acetate, (i) magnesium chloride and (j) sodium acetate.
After completion of dissolving, the solution was analyzed for dinotefuran. […] After stirring for a while, a coprecipitate was formed. The supernatant was analyzed for dinotefuran A to determine a proportion of dinotefuran taken into the coprecipitate.
For data set [2] the following is noted: cited from earlier work.

In the case of `CNC(=N[N+](=O)[O-])NCC1CCOC1` (racemic) [dinotefuran, (RS)-1-methyl-2-nitro-3-[(3-tetrahydrofuryl)methyl]guanidine], the “proportion of dinotefuran taken into the coprecipitate” value in data set [1] was 41%.

Consider `CCOP(=O)(OCC)O/C(=C\Cl)c1ccc(Cl)cc1Cl` [CVP, Chlorfenvin-phos], for which the water solubility in data set [2] is on record as 1500 ppm.

For `C/C(=N\C#N)N(C)Cc1ccc(Cl)nc1` [acetamiprid], the water solubility in data set [2] is recorded as 4200 ppm.

`CCSCc1ccccc1OC(=O)NC` [etiofencarb]: the water solubility in data set [2] was 1800 ppm. Regarding `COc1nc(NC(C)C)nc(NC(C)C)n1` [promethone], in data set [2], the water solubility was 750 ppm.
